According to patent publication US7214506B2, “Method for treating onychomycosis” (Kaken Pharmaceutical Co., Ltd., priority 1999, dated 2007):
Marks after values point to notes of the source that are not given here.

What was measured:
[1] = tested on: Trichophyton mentagrophytes SM-110 strain; assay: Evaluation of drug effect on tinea unguium, guinea pig model, present evaluation method; assay type: in vivo; details: two days after last treatment, 30 consecutive days, topical 1% solution 0.1 ml or oral 40 mg/kg; for The number of feet with fungus-negative nail/Total number of infected feet: detection limit 10 CFU/feet
Method: A fungal solution was prepared in the same manner as in the pretreatment of Comparative Example 1 except for changing Trichophyton mentagrophytes KD-04 strain to Trichophyton mentagrophytes SM-110 strain.
A guinea pig model of tinea unguium and tinea pedis was prepared in the same manner as in the above-mentioned preparation of the guinea pig model in interdigital tinea pedis except for changing male Hartley strain guinea pigs of 7 weeks age to male Hartley strain guinea pigs of 5 weeks age and except that the paper disc and the bandage was removed 21 days after the infection changing from seven days after the infection. The invasion of dermatophytes in plantar skin and nail plate was observed 60 days after the infection.
As test compounds, solutions were prepared by dissolving raw powders of KP-103, amorolfine and terbinafine in a concentration of 1% thereof to mixture solution of polyethylene grycole #400: ethanol (75:25 v/v), respectively. Capsule of terbinafine was prepared by crushing the marketed tablet, suspending in the concentration of 100 mg/ml into Miglyol 812 (available from Mitsuba trade Co., Ltd)with glass homogenizer uniformity, and injecting the resulting suspension into each capsule in the concentration of 40 mg/kg depending on body weight measured on administration day. A solution of KP-103, amorolfine or terbinafine in the amount of 0.1 ml was applied a plantar skin and nail of one foot once a day for 30 consecutive days. In case of terbinafine capsule, one capsule (40 mg/kg) was administered orally.
Animals were sacrificed two days after the last treatment. One hind foot was excised and wiped sufficiently with the cotton sweb containing alcohol. Nails (three in total) of one hind foot was excised and miced by a scissors. It was transferred into glass homogenizer and was homogenized adding 4 ml double-concentration phosphate buffered saline (Phosphate Buffered Salts, available from Takara Shuzo Co., Ltd.) containing 4% of trypsin derived from pig pancreas (available from BIOZYME Laboratories Limited). The reaction was carried out with shaking at 37° C. for one hour. After a centrifugation, the obtaining precipitate was washed three times by centrifuging with phosphate buffered saline in order to remove trypsin. The precipitate was suspended with 4 ml of distilled water and put into dialysis membrane (fractional molecular weight: 12,000–14,000, made of cellulose, available from VISKASE SALES Corporation). Dialysis was carried out into 3 L of distilled water at 4° C. for 14 days. Dialysis water was replaced twice a day 28 times in total. After a centrifugation, 1 ml of phosphate buffered saline was added to the precipitate obtained by removing the supernatant to prepare a suspension. This suspension was defined as stock solution and was diluted by tenfold. To Sabouraud dextrose agar medium (20 ml) containing the antibiotic substance described in Comparative Example 1 were added 100 μl of the stock solution or the dilution. […] The number of fungus-negative feet in the nail was counted. When the colony was appeared on the medium, the number of colonies (CFU) was counted to calculate the number of colonies in the nail of one foot by the dilution rate. After Kruskal Wallis Test was carried out for the number of fungi in the nail, the multiple comparison was carried out based on Tukey method to analysis the significant difference between groups. Those results were shown in FIG. 3 and Table 3 thereof was made. In FIG. 3, the number of CFU in nails in each treated group was plotted and the mean number of CFU was shown by horizontal line and numerical value.
Using the above-mentioned suspension, sufficient removal of the remaining drug was determined by the present evaluation method in the same manner as in Example 2.

[2] = tested on: Trichophyton mentagrophytes SM-110 strain; assay: Evaluation of drug effect on tinea pedis, guinea pig model, present evaluation method; assay type: in vivo; details: two days after last treatment; 30 consecutive days; topical 1% solution 0.1 ml or oral 40 mg/kg; detection limit 20 CFU/feet
Method: A fungal solution was prepared in the same manner as in the pretreatment of Comparative Example 1 except for changing Trichophyton mentagrophytes KD-04 strain to Trichophyton mentagrophytes SM-110 strain. A guinea pig model of tinea unguium and tinea pedis was prepared in the same manner as in the above-mentioned preparation of the guinea pig model in interdigital tinea pedis except for changing male Hartley strain guinea pigs of 7 weeks age to male Hartley strain guinea pigs of 5 weeks age and except that the paper disc and the bandage was removed 21 days after the infection changing from seven days after the infection. The invasion of dermatophytes in plantar skin and nail plate was observed 60 days after the infection. As test compounds, solutions were prepared by dissolving raw powders of KP-103, amorolfine and terbinafine in a concentration of 1% thereof to mixture solution of polyethylene grycole #400: ethanol (75:25 v/v), respectively. Capsule of terbinafine was prepared by crushing the marketed tablet, suspending in the concentration of 100 mg/ml into Miglyol 812 (available from Mitsuba trade Co., Ltd)with glass homogenizer uniformity, and injecting the resulting suspension into each capsule in the concentration of 40 mg/kg depending on body weight measured on administration day. A solution of KP-103, amorolfine or terbinafine in the amount of 0.1 ml was applied a plantar skin and nail of one foot once a day for 30 consecutive days. In case of terbinafine capsule, one capsule (40 mg/kg) was administered orally. Skin pieces of hind feet were excised from each animal described in Example 4. A removal of the drug and a determination of the remaining drug were carried out in the same as in Example 2 except that dialysis for removing the drug carried out for 3 days and that dialysis water was changed six times in total. The sufficient removal of the remaining drug was confirmed. Then the drug effect was evaluated in the same manner as in Example 4 (detection limit: 20 CFU/feet). Those results were shown in FIG. 4 and Table 4 thereof was made. In FIG. 4, the number of CFU in the skin in each treated group was plotted and the mean number of CFU was shown by horizontal line and numerical value.

[3] = tested on: Trichophyton mentagrophytes KD-04 strain; assay: Present evaluation method (drug removed by dialysis, viable fungus detected), guinea pig model of interdigital tinea pedis; assay type: in vivo; details: five days after the last treatment; for The number of fungus-negative feet/Total number of infected feet, Present evaluation method: right feet, drug removed by dialysis, detection limit 10 CFU/feet
Method: (§1) Millipore Filter (made by Millipore Corporation, HA, diameter 47 mm, 0.45 μm) was placed on Brain-Heart-infusion agar medium (available from Nissui Pharmaceutical Co., LTD.), and 10^6 cells of microcondium of Trichophyton mentagrophytes KD-04 strain were applied thereon. The cultivation was carried out at 30° C. under 17% of CO2 for 7 days. After the cultivation, just amount of physiological saline containing 0.05% of Tween 80 was dropped on the filter and arthroconidia were collected using a platinum loop. After a hyphal mass was removed by a filtration with a sterile gauze, the number of arthroconidia in the filtrate was calculated by hemocytometer to adjust in concentration of 1×10^8 arthroconidia/ml to obtain a fungal inocula.
(§2) A guinea pig model of interdigital type of tinea pedis was prepared according to the method of Arika et al (Antimicrobial Agents and Chemotherapy, 36: 2523–2525, 1992). Concretely, in two hind foots of male Hartley strain guinea pigs of 7 weeks age, the interdigital skin was lightly abraded with sandpaper. A paper disc (AAdisc available from Whatmen International Ltd cut in 8×4 mm) moisten with the above-mentioned solution of the inoculated organism was applied onto the region between the interdigital toes of the hind feet and fixed using Self-adhering-Foam Pad (Restone 1560M; available from 3M) and adhesive stretch bandage (ELASTPORE; available from Nichiban Co., Ltd). The paper disc and the bandage were removed seven days after of the infection.
(§3) A marketed 1% lanoconazole solution (commercial name: Astat (trade name) solution) and a solution in which KP-103 was solved in a concentration of 1% in polyethylene grycole #400: ethanol (75:25 v/v) mixture were used as test substance. Each solution in amount of 0.1 ml was applied to the plantar skin once a day from 10 days after the infection for 10 days.
A model was prepared according to Comparative Example 1. Lanoconazole being a test compound was used for a therapeutic experience as 1% solution with the same vehicle as KP-103. […]

[4] = tested on: Trichophyton mentagrophytes KD-04 strain; assay: Conventional method for evaluating drug effect, guinea pig model of interdigital type of tinea pedis; assay type: in vivo; details: for The number of fungus-negative feet/Total number of infected feet: 1% solution 0.1 ml topical once a day for 10 days, lanoconazole as marketed Astat solution; for The number of fungus-negative feet/Total number of infected feet, Conventional Method: five days after the last treatment, left feet, 1% solutions in PEG #400:ethanol vehicle
Method: as §1, §2, §3
The conventional method was described as follows. For the infected control group without an application of the drug, the KP-103-treated group and the lanoconazole-treated group, 10 guinea pigs (hereinafter referred to “animal”) were employed, respectively. Animals of each group were sacrificed two days after and 30 days after the last treatment. Their two hind feet were excised and wiped with the cotton sweb containing alcohol sufficiently. A skin of whole sole was excised and cut into 15 skin pieces in total including 12 skin pieces from plantar parts and 3 skin pieces from an interdigital part. Each skin pieces were placed on 20 ml of Sabouraud dextrose agar medium (available from Difco laboratories) containing 50 μg of chloramphenicol (available from Wako Pure Chemical Industries, Ltd.), 100 μg of gentamicin (available from Schering-Plough Corporation), 50 μg of 5-fluorocytosine (available from Wako Pure Chemical Industries, Ltd.) and 1 mg of cycloheximide (available from nacalai tesque, Inc.) per ml. An antibiotic substance added to the medium was set to a condition which enable bacteria not to grow and which enable fungi to grow without problem. […] In the evaluation of the effect 30 days after last treatment, two days after the last treatment the treated feet were wiped with a cotton swab containing alcohol and fixed with the bandage in order to prevent a reinfection. The bandage was changed once a week.
A model was prepared according to Comparative Example 1. Lanoconazole being a test compound was used for a therapeutic experience as 1% solution with the same vehicle as KP-103. For the infected control group without an application of a drug, the KP-103-treated group and the lanoconazole-treated group, 20 animals were employed, respectively. The two hind feet were excised from each animal five days after the last treatment in the same manner as in Comparative Example 1. A total of 20 light feet were used for an evaluation by the conventional method, and a total of 20 right feet were used in the present evaluation method. […]

[5] = tested on: fungus; details: 20 feet, cited from earlier work
[6] = tested on: Trichophyton; assay: In vitro antifungal activity against dermatophytes; assay type: cell-based
[7] = 30 days after the last treatment
[8] = two days after the last treatment

With `C=C1CCN([C@H](C)[C@](O)(Cn2cncn2)c2ccc(F)cc2F)CC1` [KP-103, (2R,3R)-2-(2,4-difluorophenyl)-3-(4-methylenepiperidine-1-yl)-1-(1H-1,2,4-triazole-1-yl)butane-2-ol] the “Mean number of fungal cells in the nail (Log CFU ± SD)” value [1] was 2.20 ± 0.56 Log CFU, the “The number of feet with fungus-negative nail/Total number of infected feet” value [1] was 0/10 and the “Mean number of fungal cells in the skin (Log CFU ± SD)” value [2] was <1.3** Log CFU. The “The number of feet with fungus-negative skin/Total number of infected feet” value [2] was 10/10**, the “rate of a fungus-negative foot evaluated by the present evaluation method” value [3] was 85% and the “The number of fungus-negative feet/Total number of infected feet, Present evaluation method” value [3] was 17/20. The “The number of fungus-negative feet/Total number of infected feet” value [4, 7] was 16/20, the “The number of fungus-negative feet/Total number of infected feet, Conventional Method” value [4] was 19/20 and the “The number of fungus-negative feet/Total number of infected feet” value [4, 8] was 20/20.
In the case of `CCC(C)(C)c1ccc(CC(C)CN2C[C@@H](C)O[C@@H](C)C2)cc1` (stereo partly shown) [Amorolfine solution, amorolfine], the “Mean number of fungal cells in the nail (Log CFU ± SD)” value [1] was 3.26 ± 0.54 Log CFU, the “The number of feet with fungus-negative nail/Total number of infected feet” value [1] was 0/10 and the “Mean number of fungal cells in the skin (Log CFU ± SD)” value [2] was 1.74 ± 0.45 Log CFU. For the same compound, the “The number of feet with fungus-negative skin/Total number of infected feet” value [2] was 4/10.
In the case of `N#C/C(=C1/SCC(c2ccccc2Cl)S1)n1ccnc1` (stereo not shown) [Lanoconazole, lanoconazole], the fungus-negative feet ([5]; 2 days after the last treatment) is given as “all feet out of 20 feet”, the feet with relapse [5, 7] is given as 11 out of 20 and the “The number of fungus-negative feet/Total number of infected feet, Present evaluation method” value [3] is given as 3/20. The “The number of fungus-negative feet/Total number of infected feet” value [4, 7] was 9/20, the “The number of fungus-negative feet/Total number of infected feet, Conventional Method” value [4] was 20/20 and the “The number of fungus-negative feet/Total number of infected feet” value [4, 8] was 20/20. For the same compound, the “growth inhibitory concentration against Trichophyton” value [6] was 15.6 ng/mL and the “in vitro activity against Trichophyton relative to KP-103” value [6] was “eight-fold more active than KP-103”.
With `CN(C/C=C/C#CC(C)(C)C)Cc1cccc2ccccc12` [Terbinafine solution, terbinafine] the “Mean number of fungal cells in the nail (Log CFU ± SD)” value [1] was 3.21 ± 0.47 Log CFU, the “The number of feet with fungus-negative nail/Total number of infected feet” value [1] was 0/10 and the “Mean number of fungal cells in the skin (Log CFU ± SD)” value [2] was <1.3** Log CFU. The “The number of feet with fungus-negative skin/Total number of infected feet” value [2] was 10/10**.
